# Reference: patent US9303016B2, “Derivatives of aza adamantane and uses thereof” (CONNEXIOS LIFE SCIENCES PVT. LTD., priority 2011, dated 2016)
# Molecular target: T1, human full length HSD11β1 (Homo sapiens, UniProt P28845)
# T1 construct: transient expression of human full length HSD11β1 expression vector; host or cells: CHO cells, transient transfection
# Experiment: In Vitro HSD11β1 Inhibition Assay
# Assay type: cell-based
# Conditions: CHO cells transiently expressing human HSD11β1; 200 nM cortisone+500 uM NADPH overnight; cortisone to cortisol by LC/MS-MS; read-out: 11βHSD1 (IC50)
# Outline: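 Whole-cell assay in CHO cells transiently transfected with full-length human HSD11β1, re-seeded 24 h after transfection. Cells incubated overnight with 200 nM cortisone plus 500 uM NADPH, with or without inhibitor. Cortisone-to-cortisol conversion measured by LC/MS-MS; IC50 (nM) from an 8-point log concentration-inhibition curve.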
# T1 sequence (P28845 whole entry): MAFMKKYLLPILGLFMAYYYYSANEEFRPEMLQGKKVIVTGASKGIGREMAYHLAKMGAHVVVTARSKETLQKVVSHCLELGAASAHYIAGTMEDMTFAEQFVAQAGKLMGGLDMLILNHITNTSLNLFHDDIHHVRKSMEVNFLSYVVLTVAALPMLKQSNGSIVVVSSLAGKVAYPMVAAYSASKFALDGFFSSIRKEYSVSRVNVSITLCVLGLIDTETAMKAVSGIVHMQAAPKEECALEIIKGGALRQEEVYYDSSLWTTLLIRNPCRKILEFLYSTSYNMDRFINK
row,Structure (SMILES),IC50
1,"CC(CC(=O)N1C2CC3CC1CC(O)(C3)C2)c1c[nH]c2cccc(N3CCCCC3)c12 (centres unmarked) [Compound 180, 1-(5-hydroxy-2-azatricyclo[3.3.1.1^3,7]dec-2-yl)-3-[4-(piperidin-1-yl)-1H-indol-3-yl]butan-1-one]",> 0.25 µM
2,"O=C(CCc1c[nH]c2ccccc12)N1C2CC3CC(C2)CC1C3 [Example 1, 1-(2-azatricyclo[3.3.1.1^3,7]dec-2-yl)-3-(1H-indol-3-yl)propan-1-one]",> 0.25 µM
3,"CC(C)C(CC(=O)N1C2CC3CC1CC(C#N)(C3)C2)c1c[nH]c2ncccc12 (centres unmarked) [Compound 92, 2-[4-methyl-3-(1H-pyrrolo[2,3-b]pyridin-3-yl)pentanoyl]-2-azatricyclo[3.3.1.1^3,7]decane-5-carbonitrile]",> 0.25 µM
4,"Cn1cc(CCC(=O)N2C3CC4CC2CC(O)(C4)C3)c2c(F)cccc21 [Example 8, 3-(4-fluoro-1-methyl-1H-indol-3-yl)-1-(5-hydroxy-2-azatricyclo[3.3.1.1^3,7]dec-2-yl)propan-1-one]",> 0.25 µM
5,"CC(CC(=O)N1C2CC3CC1CC(O)(C3)C2)c1c[nH]c2cc(F)ccc12 (single isomer, unassigned) [Compound 98, 3-(6-fluoro-1H-indol-3-yl)-1-(5-hydroxy-2-azatricyclo[3.3.1.1^3,7]dec-2-yl)butan-1-one]",< 0.1 µM
6,"Cc1ccc2c(c1Cl)C(C(C)CC(=O)N1C3CC4CC1CC(O)(C4)C3)C(=O)N2 (centres unmarked) [Compound 211, 4-chloro-3-[4-(5-hydroxy-2-azatricyclo[3.3.1.1^3,7]dec-2-yl)-4-oxobutan-2-yl]-5-methyl-1,3-dihydro-2H-indol-2-one]",0.15 to 0.2 µM
7,"CC(CC(=O)N1C2CC3CC1CC(O)(C3)C2)c1c[nH]c2ccc(-c3ccco3)c(Cl)c12 (centres unmarked) [Compound 208, 3-[4-chloro-5-(furan-2-yl)-1H-indol-3-yl]-1-(5-hydroxy-2-azatricyclo[3.3.1.1^3,7]dec-2-yl)butan-1-one]",0.1 to 0.15 µM
8,"CC(CC(=O)N1C2CC3CC1CC(C(C)C(=O)O)(C3)C2)c1c[nH]c2cccc(Cl)c12 (centres unmarked) [Compound 186, 2-{2-[3-(4-chloro-1H-indol-3-yl)butanoyl]-2-azatricyclo[3.3.1.1^3,7]dec-5-yl}propanoic acid]",> 0.25 µM
9,"Cc1cccc2[nH]cc(C(C)CC(=O)N3C4CC5CC3CC(C#N)(C5)C4)c12 (centres unmarked) [Example 70, 2-[3-(4-methyl-1H-indol-3-yl)butanoyl]-2-azatricyclo[3.3.1.1^3,7]decane-5-carbonitrile]",0.15 to 0.2 µM
10,"Cc1[nH]c2cccc(Cl)c2c1C(C)CC(=O)N1C2CC3CC1CC(O)(C3)C2 (centres unmarked) [Example 60, 3-(4-chloro-2-methyl-1H-indol-3-yl)-1-(5-hydroxy-2-azatricyclo[3.3.1.1^3,7]dec-2-yl)butan-1-one]",> 0.25 µM
11,"Cc1cccc2c1c(CCC(=O)N1C3CC4CC(C3)CC1C4)cn2C [Example 3, 1-(2-azatricyclo[3.3.1.1^3,7]dec-2-yl)-3-(1,4-dimethyl-1H-indol-3-yl)propan-1-one]",> 0.25 µM
12,"Cc1ccc2[nH]cc(C(C)CC(=O)N3C4CC5CC3CC(F)(C5)C4)c2c1C (centres unmarked) [Compound 176, 3-(4,5-dimethyl-1H-indol-3-yl)-1-(5-fluoro-2-azatricyclo[3.3.1.1^3,7]dec-2-yl)butan-1-one]",> 0.25 µM
13,"Cc1cccc2[nH]cc(C(CC(=O)N3C4CC5CC3CC(O)(C5)C4)C(C)C)c12 (centres unmarked) [Compound 74, 1-(5-hydroxy-2-azatricyclo[3.3.1.1^7]dec-2-yl)-4-methyl-3-(4-methyl-1H-indol-3-yl)pentan-1-one]",> 0.25 µM
14,"O=C(CCc1c[nH]c2ncccc12)N1C2CC3CC(C2)CC1C3 [Example 14, 1-(2-azatricyclo[3.3.1.1^3,7]dec-2-yl)-3-(1H-pyrrolo[2,3-b]pyridin-3-yl)propan-1-one]",0.1 to 0.15 µM
15,"CC(CC(=O)N1C2CC3CC1CC(O)(C3)C2)c1c[nH]c2cccc(Cl)c12 (single isomer, unassigned) [Example 37, 3-(4-chloro-1H-indol-3-yl)-1-(5-hydroxy-2-azatricyclo[3.3.1.1^3,7]dec-2-yl)butan-1-one]",< 0.1 µM
16,"CC(CC(=O)N1C2CC3CC1CC(CC(=O)O)(C3)C2)c1c[nH]c2cccc(C3CC3)c12 (single isomer, unassigned) [Compound 155, {2-[3-(4-cyclopropyl-1H-indol-3-yl)butanoyl]-2-azatricyclo[3.3.1.1^3,7]dec-5-yl}acetic acid]",0.1 to 0.15 µM
17,"CC(CC(=O)N1C2CC3CC1CC(O)(C3)C2)c1nc2ccc(Cl)cc2s1 (single isomer, unassigned) [Compound 194, 3-(6-chloro-1,3-benzothiazol-2-yl)-1-(5-hydroxy-2-azatricyclo[3.3.1.1^3,7]dec-2-yl)butan-1-one]",< 0.1 µM

# Further lines, results first:
row,IC50,Structure (SMILES)
1,< 0.1 µM,"Cc1c(F)ccc2[nH]cc(C(C)CC(=O)N3C4CC5CC3CC(O)(C5)C4)c12 (centres unmarked) [Compound 139, 3-(5-fluoro-4-methyl-1H-indol-3-yl)-1-(5-hydroxy-2-azatricyclo[3.3.1.1^3,7]dec-2-yl)butan-1-one]"
2,> 0.25 µM,"CC(C)Oc1cccc2[nH]cc(C(C)CC(=O)N3C4CC5CC3CC(O)(C5)C4)c12 (single isomer, unassigned) [Compound 179, 1-(5-hydroxy-2-azatricyclo[3.3.1.1^3,7]dec-2-yl)-3-[4-(propan-2-yloxy)-1H-indol-3-yl]butan-1-one]"
3,< 0.1 µM,"CC(CC(=O)N1C2CC3CC(C2)CC1C3)c1nc2c(Cl)cccc2s1 (centres unmarked) [Compound 119, 1-(2-azatricyclo[3.3.1.1^3,7]dec-2-yl)-3-(4-chloro-1,3-benzothiazol-2-yl)butan-1-one]"
4,> 0.25 µM,"O=C(CC(c1ccccc1)c1nc2ccccc2s1)N1C2CC3CC1CC(F)(C3)C2 (centres unmarked) [Compound 108, 3-(1,3-benzothiazol-2-yl)-1-(5-fluoro-2-azatricyclo[3.3.1.1^3,7]dec-2-yl)-3-phenylpropan-1-one]"
5,> 0.25 µM,"CC(CC(=O)N1C2CC3CC1CC(O)(C3)C2)c1c[nH]c2ccc(Cl)c(Cl)c12 (single isomer, unassigned) [Compound 172, 3-(4,5-dichloro-1H-indol-3-yl)-1-(5-hydroxy-2-azatricyclo[3.3.1.1^3,7]dec-2-yl)butan-1-one]"
6,> 0.25 µM,"O=C(CCn1nnc2ccccc21)N1C2CC3CC1CC(O)(C3)C2 [Example 16, 3-(1H-benzotriazol-1-yl)-1-(5-hydroxy-2-azatricyclo[3.3.1.1^3,7]dec-2-yl)propan-1-one]"
7,0.2 to 0.25 µM,"COc1c(C)ccc2[nH]cc(C(C)CC(=O)N3C4CC5CC3CC(O)(C5)C4)c12 (centres unmarked) [Compound 209, 1-(5-hydroxy-2-azatricyclo[3.3.1.1^3,7]dec-2-yl)-3-(4-methoxy-5-methyl-1H-indol-3-yl)butan-1-one]"
8,> 0.25 µM,"CC(CC(=O)N1C2CC3CC1CC(O)(C3)C2)c1c[nH]c2ncc(Cl)c(C3CC3)c12 (single isomer, unassigned) [Compound 200, 3-(5-chloro-4-cyclopropyl-1H-pyrrolo[2,3-b]pyridin-3-yl)-1-(5-hydroxy-2-azatricyclo[3.3.1.1^3,7]dec-2-yl)butan-1-one]"
9,> 0.25 µM,"CC(CC(=O)N1C2CC3CC1CC(C(N)=O)(C3)C2)c1nc2ccc(Cl)cc2s1 (centres unmarked) [Compound 196, 2-[3-(6-chloro-1,3-benzothiazol-2-yl)butanoyl]-2-azatricyclo[3.3.1.1^3,7]decane-5-carboxamide]"
10,> 0.25 µM,"O=C(O)C1C2CC3CC(C2)N(C(=O)CC(c2cccs2)c2c[nH]c4cccc(F)c24)C1C3 (centres unmarked) [Compound 122, 2-[3-(4-fluoro-1H-indol-3-yl)-3-(thiophen-2-yl)propanoyl]-2-azatricyclo[3.3.1.1^3,7]decane-4-carboxylic acid]"
11,0.1 to 0.15 µM,"CC(CC(=O)N1C2CC3CC1CC(O)(C3)C2)c1c[nH]c2cc(Cl)c(C3CC3)cc12 (centres unmarked) [Compound 138, 3-(6-chloro-5-cyclopropyl-1H-indol-3-yl)-1-(5-hydroxy-2-azatricyclo[3.3.1.1^3,7]dec-2-yl)butan-1-one]"
12,< 0.1 µM,"O=C(CCc1c[nH]c2cccc(C3CC3)c12)N1C2CC3CC1CC(O)(C3)C2 [Compound 126, 3-(4-cyclopropyl-1H-indol-3-yl)-1-(5-hydroxy-2-azatricyclo[3.3.1.1^3,7]dec-2-yl)propan-1-one]"
13,> 0.25 µM,"CC(CC(=O)N1C2CC3CC1CC(O)(C3)C2)c1nc2ccc(Cl)cc2s1 (single isomer, unassigned) [Compound 195, 3-(6-chloro-1,3-benzothiazol-2-yl)-1-(5-hydroxy-2-azatricyclo[3.3.1.1^3,7]dec-2-yl)butan-1-one]"
14,< 0.1 µM,"CC(CC(=O)N1C2CC3CC1CC(O)(C3)C2)c1c[nH]c2ncc(Cl)c(Cl)c12 (centres unmarked) [Compound 197, 3-(4,5-dichloro-1H-pyrrolo[2,3-b]pyridin-3-yl)-1-(5-hydroxy-2-azatricyclo[3.3.1.1^3,7]dec-2-yl)butan-1-one]"
15,> 0.25 µM,"CC(CC(=O)N1C2CC3CC1CC(O)(C3)C2)c1c[nH]c2ccccc12 (single isomer, unassigned) [Example 21, 1-(5-hydroxy-2-azatricyclo[3.3.1.1^3,7]dec-2-yl)-3-(1H-indol-3-yl)butan-1-one]"
16,> 0.25 µM,"CC(CC(=O)N1C2CC3CC1CC(C#N)(C3)C2)c1nc2ccccc2s1 (centres unmarked) [Compound 118, 2-[3-(1,3-benzothiazol-2-yl)butanoyl]-2-azatricyclo[3.3.1.1^3,7]decane-5-carbonitrile]"
17,< 0.1 µM,"CC(CC(=O)N1C2CC3CC1CC(O)(C3)C2)c1c[nH]c2cccc(Cl)c12 (centres unmarked) [Example 35, 3-(4-chloro-1H-indol-3-yl)-1-(5-hydroxy-2-azatricyclo[3.3.1.1^3,7]dec-2-yl)butan-1-one]"
18,< 0.1 µM,"Cc1cccc2[nH]cc(C(C)CC(=O)N3C4CC5CC3CC(F)(C5)C4)c12 (centres unmarked) [Compound 104, 1-(5-fluoro-2-azatricyclo[3.3.1.1^3,7]dec-2-yl)-3-(4-methyl-1H-indol-3-yl)butan-1-one]"
